For data set [1], the system named is MDA-MB-435 breast carcinoma. The data set is described as follows: Anchorage Dependent Growth Monolayer Assay (ADGMA), MTS readout. The format is cell-based. The following applies: average ± S.D., 3-day exposure, A490. The source says: As indicated above, all of the compounds of formula I, and their corresponding pharmaceutically acceptable acid addition salts, are anti-tumor agents and are, therefore, useful in inhibiting the growth of various lymphomas, sarcomas, carcinomas, myelomas, and leukemia cell lines. […] This assay was adapted from the 60 cell line assay used by the National Cancer Institute (NCI) with the following modifications: 1) a single cell line representative for the important tumor type, viz., MDA-MB-435 breast carcinoma was utilized; 2) a tetrazolium derivative, viz., MTS, was utilized to determine cell density.
The ADGMA compares the number of viable cells following a 3-day exposure to a test compound relative to a number of cells present at the time the test compound was added. […] The absorbance at 490 nm (A490) of the formazan derivative is proportional to the number of viable cells. The IC50 for a test compound is the concentration of compound required to reduce the final cell number to 50% of the final control cell number. If cell proliferation is inhibited, the assay further defines compounds as cytostatic (cell number after 3-day compound incubation >cell number at time of compound addition) or cytotoxic (cell number after 3-day compound incubation <cell number at time of compound addition).
The MDA-MB-435 breast carcinoma line was obtained from the American Type Culture Collection (ATCC) and used between passages 4-20 following thawing. MDA-MB-435 breast carcinoma was maintained and plated in DME/F12 medium containing 10% fetal bovine serum, 15 mM HEPES (pH=7.4), penicillin 100 units/mL, and streptomycin 100 µg/mL.
Cell lines are trypsinized and counted using a Coulter counter to determine plating densities. Cells are then plated in their respective maintenance media (100 µL/well) in 96 well plates at the following densities: MDA-MB-435, 3,000 cells/well. The number of cells plates as determined in preliminary experiments, results in cell densities of 75-90% of confluency by 4 days after plating. Initial cell densities, assayed one day after plating, are roughly 0.15-0.20 absorbance units greater than the media blank. Ninety-six well plates are seeded on day 0 and the test compounds are added on day 1. A control plate is created for each cell line that receives media only in row A and cells in row B. One day following plating, test compounds are added (in a final volume of 100 µL) to the test plates. Control plates receive 10 µL MTS mixture (prepared fresh on day of addition to cell plates at a ratio of 10 µL of a 0.92 mg/mL solution of PMS to a 190 µL of a 2 mg/mL solution of MTS) and 100 µL media. A490 of control plates is read 4h after MTS addition to determine initial cell density values for each cell line. Three days after addition of test compound, 10 µL/well of MTS mixture is added to the test plates and A490 is read 4h later. A490 values for wells containing cells are corrected for media absorbance, then normalized to initial density readings to determine percent net growth. IC50 values are determined from graphs of percent net growth as a function of compound concentration. Percent net growth is calculated as (Cell + Drug A490 - Initial A490/Cell + Drug Vehicle A490 - Initial A490).

In data set [2] the test system is MDA-MB-435 tumor xenografts. The data set is described as follows: Human tumor xenograft growth inhibition in athymic nude mouse model. The format is in vivo, athymic (nu/nu) mice. The procedure: The histologic tumor type employed was MDA-MB-435 breast carcinoma.
Positive controls are carried out with doxorubicin administered 3 times per week i.v.
Anti-tumor activity was expressed as %T/C (Δ MTV of treated group ö Δ MTV of control group X100).

Where [3] appears, read: 10 µmol/kg i.v., 3X/week for 3 weeks.
Setting [4] is: 33 µmol/kg i.v., 3X/week for 3 weeks.
Setting [5] is: Mus musculus, MDA-MB-435, iv, 504 h, 10 µmol/kg i.v., 3X/week for 3 weeks, * = statistically significant (p=<0.05), read-out: %T/C.
[6] abbreviates: Mus musculus, MDA-MB-435, iv, 504 h, 33 µmol/kg i.v., 3X/week for 3 weeks, * = statistically significant (p=<0.05), read-out: %T/C.
Where [7] appears, read: Mus musculus, MDA-MB-435, iv, 504 h, read-out: %T/C.
Setting [8] is: 2 mg/kg i.v., 3X/week for 3 weeks (positive control).

Like-named read-outs stand apart in the source and are kept apart here.

As usually defined, the IC50 is the concentration that gives 50% inhibition.

Turning to `CO[C@@H](C(=O)N[C@H]1CC[C@@H](OC(=O)C2CCCCCC2)CNC1=O)[C@H](O)[C@@H](O)[C@H](O)/C=C/C(C)(C)C` [Ex. 3], the half-inhibitory concentration (IC50) in data set [1] (Homo sapiens, MDA-MB-435, 72 h) stood at 32 ± 14 nM. Moreover, in data set [2] (setting [3]), the Dead/Total was 0/8 and the “Δ MTV” value is on record as 69 mm^3. In data set [2] (setting [4]), the Dead/Total is recorded as 0/8 and the “Δ MTV” value came out at 49 mm^3. The response vs control in vivo at 10 µmol/kg in data set [2] (setting [5]) stood at 39%. Besides, the response vs control in vivo at 33 µmol/kg in data set [2] (setting [6]) was determined as 28%.
In data set [1] (Homo sapiens, MDA-MB-435, 72 h), `CO[C@@H](C(=O)N[C@H]1CC[C@@H](OC(=O)CCc2cccnc2)CNC1=O)[C@H](O)[C@@H](O)[C@H](O)/C=C/C(C)(C)C` [Ex. 5, (2R, 3R, 4S, 5R, 6E)-3,4,5-trihydroxy-2-methoxy-8,8-dimethyl-N-[(3S, 6R)-hexahydro-2-oxo-6-(1-oxo-3-[3-pyridyl]propoxy)-2H-azepin-3-yl]non-6-enamide] displayed an IC50 of 465 ± 204 nM. In addition, in data set [2] (setting [3]), the Dead/Total was 0/8 and the “Δ MTV” value stood at 130 mm^3. For the same compound, in data set [2] (setting [4]), the Dead/Total is 0/8 and the “Δ MTV” value came out at 62 mm^3. In addition, the response vs control in vivo at 10 µmol/kg in data set [2] (setting [5]) stood at 92%. Besides, the response vs control in vivo at 33 µmol/kg in data set [2] (setting [6]) came out at 44%.
With `CO[C@@H](C(=O)N[C@H]1CC[C@@H](OC(=O)CC2CCCCC2)CNC1=O)[C@H](O)[C@@H](O)[C@H](O)/C=C/C(C)(C)C` [Ex. 6, (2R, 3R, 4S, 5R, 6E)-3,4,5-trihydroxy-2-methoxy-8,8-dimethyl-N-[(3S, 6R)-hexahydro-2-oxo-6-(cyclohexylmethylcarbonyl)oxy-2H-azepin-3-yl]non-6-enamide], the IC50 in data set [1] (Homo sapiens, MDA-MB-435, 72 h) came to 65 ± 1 nM. In data set [2] (setting [3]), the Dead/Total is listed as 0/8 and the “Δ MTV” value came out at 66 mm^3. Moreover, in data set [2] (setting [4]), the Dead/Total is on record as 0/8 and the “Δ MTV” value is given as 48 mm^3. For the same compound, the response vs control in vivo at 10 µmol/kg in data set [2] (setting [5]) stood at 47%. Moreover, in data set [2] (setting [6]), the response vs control in vivo at 33 µmol/kg came to 34%.
The compound `CO[C@@H](C(=O)N[C@H]1CC[C@@H](OC(=O)Cc2ccccc2)CNC1=O)[C@H](O)[C@@H](O)[C@H](O)/C=C/C(C)(C)C` [Ex. 7, (2R, 3R, 4S, 5R, 6E)-3,4,5-trihydroxy-2-methoxy-8,8-dimethyl-N-[(3S, 6R)-hexahydro-2-oxo-6-(1-oxo-2-phenylethoxy)-2H-azepin-3-yl]non-6-enamide] showed an IC50 in data set [1] (Homo sapiens, MDA-MB-435, 72 h) of 262 ± 70 nM. Besides, in data set [2] (setting [3]), the Dead/Total was 0/8 and the “Δ MTV” value stood at 101 mm^3. Besides, in data set [2] (setting [4]), the Dead/Total is given as 0/8 and the “Δ MTV” value was 61 mm^3. Further, the response vs control in vivo at 10 µmol/kg in data set [2] (setting [5]) is 72%. Further, in data set [2] (setting [6]), the response vs control in vivo at 33 µmol/kg came out at 43%.
With `CO[C@@H](C(=O)N[C@H]1CC[C@@H](OC(=O)Cc2ccc(Cl)c(Cl)c2)CNC1=O)[C@H](O)[C@@H](O)[C@H](O)/C=C/C(C)(C)C` [Ex. 8, (2R, 3R, 4S, 5R, 6E)-3,4,5-trihydroxy-2-methoxy-8,8-dimethyl-N-[(3S, 6R)-hexahydro-2-oxo-6-(1-oxo-2-[3,4-dichlorophenyl]ethoxy)-2H-azepin-3-yl]non-6-enamide], in data set [1] (Homo sapiens, MDA-MB-435, 72 h), the IC50 stood at 175 ± 7 nM. Also, in data set [2] (setting [3]), the Dead/Total is given as 0/8 and the “Δ MTV” value is listed as 87 mm^3. In data set [2] (setting [4]), the Dead/Total is 0/8 and the “Δ MTV” value is recorded as 94 mm^3. Besides, the response vs control in vivo at 10 µmol/kg in data set [2] (setting [5]) is 62%. The response vs control in vivo at 33 µmol/kg in data set [2] (setting [6]) is 67%.
In data set [1] (Homo sapiens, MDA-MB-435, 72 h), `COc1ccc(CC(=O)O[C@@H]2CC[C@H](NC(=O)[C@H](OC)[C@H](O)[C@@H](O)[C@H](O)/C=C/C(C)(C)C)C(=O)NC2)cc1` [Ex. 9, (2R, 3R, 4S, 5R, 6E)-3,4,5-trihydroxy-2-methoxy-8,8-dimethyl-N-[(3S, 6R)-hexahydro-2-oxo-6-(1-oxo-2-[4-methoxyphenyl]ethoxy)-2H-azepin-3-yl]non-6-enamide] returned a concentration for half-maximal inhibition (IC50) of 335 ± 141 nM. Also, in data set [2] (setting [3]), the Dead/Total is reported as 0/8 and the “Δ MTV” value is on record as 107 mm^3. Further, in data set [2] (setting [4]), the Dead/Total is 0/8 and the “Δ MTV” value is on record as 68 mm^3. Also, in data set [2] (setting [5]), the response vs control in vivo at 10 µmol/kg stood at 76%. Moreover, in data set [2] (setting [6]), the response vs control in vivo at 33 µmol/kg was 48%.
`CCCCCCCCCCOc1ccc(C(=O)O[C@@H]2CC[C@H](NC(=O)[C@H](OC)[C@H](O)[C@@H](O)[C@H](O)/C=C/C(C)(C)C)C(=O)NC2)cc1` [Ex. 10, (2R, 3R, 4S, 5R, 6E)-3,4,5-trihydroxy-2-methoxy-8,8-dimethyl-N-[(3S, 6R)-hexahydro-2-oxo-6-([4-n-decyloxyphenyl]carbonyl)oxy-2H-azepin-3-yl]non-6-enamide]: in data set [1] (Homo sapiens, MDA-MB-435, 72 h), the IC50 amounted to 8 ± 4 nM. In data set [2] (setting [3]), the Dead/Total is 0/8 and the “Δ MTV” value was 115 mm^3. In addition, in data set [2] (setting [4]), the Dead/Total is given as 0/8 and the “Δ MTV” value is reported as 4 mm^3. In data set [2] (setting [5]), the response vs control in vivo at 10 µmol/kg is 64%. Besides, in data set [2] (setting [6]), the response vs control in vivo at 33 µmol/kg is 2%.
Take `CO[C@@H](C(=O)N[C@H]1CC[C@@H](OC(=O)/C=C/c2ccccc2)CNC1=O)[C@H](O)[C@@H](O)[C@H](O)/C=C/C(C)(C)C` [Ex. 11]: in data set [1] (Homo sapiens, MDA-MB-435, 72 h), the midpoint of inhibition, the IC50, lay at 19 ± 5 nM. Moreover, in data set [2] (setting [3]), the Dead/Total is given as 0/8 and the “Δ MTV” value worked out at 135 mm^3. In data set [2] (setting [4]), the Dead/Total is 0/8 and the “Δ MTV” value is recorded as 76 mm^3. In data set [2] (setting [7]), the response vs control in vivo at 10 µmol/kg stood at 76% and the response vs control in vivo at 33 µmol/kg worked out at 43%.
In data set [1] (Homo sapiens, MDA-MB-435, 72 h), `CCCCCCCCCCc1ccc(C(=O)O[C@@H]2CC[C@H](NC(=O)[C@H](OC)[C@H](O)[C@@H](O)[C@H](O)/C=C/C(C)(C)C)C(=O)NC2)cc1` [Ex. 12, (2R, 3R, 4S, 5R, 6E)-3,4,5-trihydroxy-2-methoxy-8,8-dimethyl-N-[(3S, 6R)-hexahydro-2-oxo-6-([4-n-decylphenyl]carbonyl)oxy-2H-azepin-3-yl]non-6-enamide] showed an IC50 of 34 ± 46 nM. In data set [2] (setting [3]), the Dead/Total was 0/8 and the “Δ MTV” value is 78 mm^3. In data set [2] (setting [4]), the Dead/Total is on record as 0/8 and the “Δ MTV” value amounted to 11 mm^3. Also, in data set [2] (setting [7]), the response vs control in vivo at 10 µmol/kg stood at 52% and the response vs control in vivo at 33 µmol/kg was found to be 7%.
`CO[C@@H](C(=O)N[C@H]1CC[C@@H](OC(=O)Cc2ccsc2)CNC1=O)[C@H](O)[C@@H](O)[C@H](O)/C=C/C(C)(C)C` [Ex. 13, (2R, 3R, 4S, 5R, 6E)-3,4,5-trihydroxy-2-methoxy-8,8-dimethyl-N-[(3S, 6R)-hexahydro-2-oxo-6-(1-oxo-3-[3-thiophenyl]ethoxy)-2H-azepin-3-yl]non-6-enamide] came in with a concentration for half-maximal inhibition (IC50) in data set [1] of 300 nM.
With `COc1cccc2c1C(=O)c1c(O)c3c(c(O)c1C2=O)C[C@@](O)(C(=O)CO)C[C@@H]3O[C@H]1C[C@H](N)[C@H](O)[C@H](C)O1` [doxorubicin, reference compound], the IC50 in data set [1] (Homo sapiens, MDA-MB-435, 72 h) is 137 ± 105 nM. In addition, in data set [2] (setting [8]), the Dead/Total is 0/8 and the “Δ MTV” value is given as 74 mm^3. In addition, the response vs control in vivo at 2 mg/kg in data set [2] (Mus musculus, MDA-MB-435, iv, 504 h, 2 mg/kg i.v., 3X/week for 3 weeks (positive control), * = statistically significant (p=<0.05), read-out: %T/C) turned out to be 42%.
For “(2R, 3R, 4S, 5R, 6E)-3,4,5-trihydroxy-2-methoxy-8,8-dimethyl-N-[(3S, 6R)-hexahydro-2-oxo-6-(1-oxo-3-[3-indolyl]ethoxy)-2H-azepin-3-yl]non-6-enamide [Ex. 14]”, the half-maximal inhibitory concentration (IC50) in data set [1] came to 1240 ± 200 nM.

(Values after EP1131297B1, “CERTAIN SUBSTITUTED CAPROLACTAMS, PHARMACEUTICAL COMPOSITIONS CONTAINING THEM AND THEIR USE IN TREATING TUMORS” (Novartis AG, priority 1998, dated 2000).)
